pIC50: −log10 of the molar value. The source made the active and inactive calls. The calls are words filed in the database; no cut-off is given here.
Legend:
[1] = target: T1, Protein deacetylase HDAC6 (Homo sapiens) (UniProt Q9UBN7); assay: Inhibition of full length N-terminal GST-tagged human HDAC6 expressed in baculovirus expression system at 1 uM using ZMAL as substrate incubated for 90 mins by fluorescence assay relative to control
T1 sequence (whole entry): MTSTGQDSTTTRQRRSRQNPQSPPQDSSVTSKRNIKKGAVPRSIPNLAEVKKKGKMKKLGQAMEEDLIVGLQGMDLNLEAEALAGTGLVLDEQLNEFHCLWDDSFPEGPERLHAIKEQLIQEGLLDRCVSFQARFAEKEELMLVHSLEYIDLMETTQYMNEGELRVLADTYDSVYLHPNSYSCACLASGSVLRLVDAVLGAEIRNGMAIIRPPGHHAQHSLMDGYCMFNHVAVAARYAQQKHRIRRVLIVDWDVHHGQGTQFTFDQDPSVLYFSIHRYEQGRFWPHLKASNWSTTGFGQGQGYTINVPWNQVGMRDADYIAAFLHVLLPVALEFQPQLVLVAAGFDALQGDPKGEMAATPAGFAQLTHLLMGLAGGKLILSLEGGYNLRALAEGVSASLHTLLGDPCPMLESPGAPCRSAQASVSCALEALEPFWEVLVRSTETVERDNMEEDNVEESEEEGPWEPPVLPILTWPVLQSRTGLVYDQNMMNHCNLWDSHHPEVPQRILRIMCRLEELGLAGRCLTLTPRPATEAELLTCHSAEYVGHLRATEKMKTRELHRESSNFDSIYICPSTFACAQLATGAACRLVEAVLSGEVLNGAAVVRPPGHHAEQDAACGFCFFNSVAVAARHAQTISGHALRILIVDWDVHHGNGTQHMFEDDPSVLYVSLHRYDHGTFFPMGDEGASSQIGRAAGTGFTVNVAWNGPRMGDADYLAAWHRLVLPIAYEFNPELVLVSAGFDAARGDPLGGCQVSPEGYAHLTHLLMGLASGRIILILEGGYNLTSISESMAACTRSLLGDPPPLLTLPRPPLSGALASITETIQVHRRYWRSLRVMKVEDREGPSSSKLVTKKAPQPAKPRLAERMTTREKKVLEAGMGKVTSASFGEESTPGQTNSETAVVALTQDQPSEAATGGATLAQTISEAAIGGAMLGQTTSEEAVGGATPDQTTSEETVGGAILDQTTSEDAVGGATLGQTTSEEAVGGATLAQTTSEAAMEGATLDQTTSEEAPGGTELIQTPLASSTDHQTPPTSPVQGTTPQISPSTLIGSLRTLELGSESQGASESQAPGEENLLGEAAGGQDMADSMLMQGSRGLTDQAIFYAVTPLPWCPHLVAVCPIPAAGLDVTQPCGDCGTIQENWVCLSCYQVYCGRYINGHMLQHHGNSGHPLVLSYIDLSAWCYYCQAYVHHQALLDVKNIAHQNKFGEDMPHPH

[2] = target: T2, Histone deacetylase 1 (Homo sapiens, UniProt Q13547); assay: Inhibition of full length C-terminal His/FLAG-tagged human HDAC1 expressed in baculovirus expression system at 1 uM using ZMAL as substrate incubated for 90 mins by fluorescence assay relative to control
T2 sequence (Q13547 whole entry): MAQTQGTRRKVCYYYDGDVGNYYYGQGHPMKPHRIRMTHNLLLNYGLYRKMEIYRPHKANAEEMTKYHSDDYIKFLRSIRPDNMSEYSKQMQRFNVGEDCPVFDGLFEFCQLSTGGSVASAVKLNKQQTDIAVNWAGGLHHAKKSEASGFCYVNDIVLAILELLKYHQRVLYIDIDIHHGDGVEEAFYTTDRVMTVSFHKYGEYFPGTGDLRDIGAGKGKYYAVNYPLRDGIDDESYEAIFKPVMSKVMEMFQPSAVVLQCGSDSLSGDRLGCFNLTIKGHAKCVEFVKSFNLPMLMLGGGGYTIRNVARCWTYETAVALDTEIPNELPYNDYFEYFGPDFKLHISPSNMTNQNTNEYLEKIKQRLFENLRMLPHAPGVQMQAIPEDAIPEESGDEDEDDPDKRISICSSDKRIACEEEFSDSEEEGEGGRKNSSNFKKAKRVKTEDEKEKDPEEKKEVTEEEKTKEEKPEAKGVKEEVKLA

[3] = target: T3, Protein deacetylase HDAC6 (Homo sapiens, UniProt Q9UBN7); assay: Inhibition of full length N-terminal GST-tagged human HDAC6 expressed in baculovirus expression system using ZMAL as substrate incubated for 90 mins by fluorescence assay
T3 sequence (Q9UBN7 whole entry): T1 sequence (whole entry)

[4] = target: T2, Histone deacetylase 1; assay: Inhibition of full length C-terminal His/FLAG-tagged human HDAC1 expressed in baculovirus expression system using ZMAL as substrate incubated for 90 mins by fluorescence assay
[5] = species on record: Homo sapiens; assay: Selectivity ratio of IC50 for full length C-terminal His/FLAG-tagged human HDAC1 expressed in baculovirus expression system to IC50 full length N-terminal GST-tagged human HDAC6 expressed in baculovirus expression system
[6] = Mutagenicity in Salmonella typhimurium TA100 at 24 to 40 uM measured after 90 mins in presence of S9 fraction by Ames test; format: toxicity, subcellular; conditions: salmonella enterica subsp. enterica serovar typhimurium, s9, 1.5 h, dose 24-40 µM
[7] = species on record: Homo sapiens; assay: Selectivity ratio of IC50 for human recombinant HDAC8 expressed in Escherichia coli to IC50 full length N-terminal GST-tagged HDAC6 expressed in baculovirus expression system
[8] = Cytotoxicity against mouse NIH3T3 cells assessed as reduction in cell viability measured after 24 hrs by neutral red uptake assay; format: cell-based; conditions: read-out: TC50
[9] = Mutagenicity in Salmonella typhimurium TA98 at 8 to 160 uM measured after 90 mins in absence of S9 fraction by Ames test; format: toxicity; conditions: salmonella enterica subsp. enterica serovar typhimurium, s9, 1.5 h, dose 8-160 µM
[10] = Mutagenicity in Salmonella typhimurium TA100 at 24 to 40 uM measured after 90 mins in absence of S9 fraction by Ames test; format: toxicity; conditions: salmonella enterica subsp. enterica serovar typhimurium, s9, 1.5 h, dose 24-40 µM
[11] = Mutagenicity in Salmonella typhimurium TA98 at 8 to 160 uM measured after 90 mins in presence of S9 fraction by Ames test; format: toxicity, subcellular; conditions: salmonella enterica subsp. enterica serovar typhimurium, s9, 1.5 h, dose 8-160 µM
[12] = tested on: Ca9-22; assay: Antiproliferative activity against human Ca9-22 cells assessed as reduction in cell viability measured after 48 hrs by alamar blue dye based spectrofluorometry; format: functional; conditions: Ca9-22, 48 h
[13] = Antiproliferative activity against human TR-146 cells assessed as reduction in cell viability measured after 48 hrs by alamar blue dye based spectrofluorometry; format: functional; conditions: TR146, 48 h
[14] = target: T1, Protein deacetylase HDAC6 (Homo sapiens); assay: Inhibition of HDAC6 in human MEC1 cells assessed as reduction in STAT3 phosphorylation at 5 to 10 uM measured after 30 hrs by immunoblot assay; format: cell-based; conditions: dose microM 5-10, time 30.0 hrs
[15] = tested on: KYSE-520 cell line; assay: Antiproliferative activity against human KYSE520 cells assessed as reduction in cell viability measured after 48 hrs by alamar blue dye based spectrofluorometry; format: functional; conditions: KYSE-520, 48 h
[16] = target: T1, Protein deacetylase HDAC6 (Homo sapiens); assay: Inhibition of HDAC6 in human U-266 cells assessed as reduction in STAT3 phosphorylation at 25 uM measured after 4 to 48 hrs by immunoblot assay; format: cell-based; conditions: time hrs 4-48
[17] = target: T4, Histone deacetylase 8 (Homo sapiens, UniProt Q9BY41); assay: Inhibition of human recombinant HDAC8 expressed in Escherichia coli using Fluor de Lys substrate preincubated for 15 mins followed by substrate addition and measured after 60 mins by fluorescence assay
T4 sequence (Q9BY41 whole entry): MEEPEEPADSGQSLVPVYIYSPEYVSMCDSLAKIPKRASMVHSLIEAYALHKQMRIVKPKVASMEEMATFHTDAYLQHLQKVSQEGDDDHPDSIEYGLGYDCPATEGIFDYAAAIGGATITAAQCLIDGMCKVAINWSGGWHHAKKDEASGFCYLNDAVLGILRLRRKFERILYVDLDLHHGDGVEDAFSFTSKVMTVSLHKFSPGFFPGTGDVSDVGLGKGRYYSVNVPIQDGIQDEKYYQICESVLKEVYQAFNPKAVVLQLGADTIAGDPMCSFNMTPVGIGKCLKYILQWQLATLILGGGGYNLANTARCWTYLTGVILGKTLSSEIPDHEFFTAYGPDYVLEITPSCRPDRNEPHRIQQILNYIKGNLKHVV

[18] = tested on: OE33; assay: Antiproliferative activity against human OE33 cells assessed as reduction in cell viability measured after 72 hrs by MTT assay; format: functional, cell-based; conditions: OE33, 72 h
[19] = tested on: KYSE-520 cell line; assay: Induction of apoptosis human KYSE520 cells at 30 to 100 uM measured after 48 hrs by Annexin-V/propidium iodide staining based assay; format: functional, cell-based; conditions: dose microM 30-100, time 48.0 hrs
[20] = tested on: U-937; assay: Cell cycle arrest in human U-937 cells assessed as reduction in accumulation at S-phase at 10 uM measured after 24 to 48 hrs by propidium iodide staining based flow cytometry; format: functional; conditions: time hrs 24-48
[21] = Mutagenicity in Salmonella typhimurium TA100 at 8 uM measured after 90 mins in absence of S9 fraction by Ames test; format: toxicity; conditions: salmonella enterica subsp. enterica serovar typhimurium, s9, 1.5 h
[22] = tested on: NB-4; assay: Induction of apoptosis in human NB-4 cells assessed as increase in cleaved PARP expression at 10 uM measured after 24 to 48 hrs by Western blot analysis; format: functional, cell-based; conditions: time hrs 24-48
[23] = tested on: NB-4; assay: Cell cycle arrest in human NB-4 cells at 5 to 10 uM measured after 24 to 48 hrs by propidium iodide staining based flow cytometry; format: functional; conditions: dose microM 5-10, time hrs 24-48
[24] = Mutagenicity in Salmonella typhimurium TA100 at 8 uM measured after 90 mins in presence of S9 fraction by Ames test; format: toxicity, subcellular; conditions: salmonella enterica subsp. enterica serovar typhimurium, s9, 1.5 h
[25] = tested on: NB-4; assay: Cell cycle arrest in human NB-4 cells at 5 to 10 uM measured after 48 hrs by propidium iodide staining based flow cytometry; format: functional; conditions: dose microM 5-10, time 48.0 hrs
[26] = target: T1, Protein deacetylase HDAC6 (Homo sapiens); assay: Inhibition of HDAC6 in human U-266 cells assessed as reduction in STAT3 phosphorylation measured after 4 to 48 hrs by immunoblot assay; format: cell-based; conditions: time hrs 4-48
[27] = tested on: Histone deacetylase; assay: Inhibition of HDAC in human NB-4 cells assessed as effect on histone acetylation at 10 uM measured after 24 to 48 hrs by Western blot analysis; format: cell-based; conditions: nb-4, 10 µM, time 24-48 hrs
[28] = target: T1, Protein deacetylase HDAC6 (Homo sapiens); assay: Inhibition of HDAC6 in human NB-4 cells assessed as increase in tubulin acetylation at 10 uM measured after 24 to 48 hrs by Western blot analysis; format: cell-based; conditions: time hrs 24-48
[29] = target: T1, Protein deacetylase HDAC6 (Homo sapiens); assay: Inhibition of HDAC6 in human MEC1 cells assessed as reduction in STAT3 phosphorylation measured after 30 hrs by immunoblot assay; format: cell-based
[30] = tested on: U266B; assay: Induction of apoptosis in human U266B cells at 25 to 50 uM measured after 48 hrs by Annexin-V/propidium iodide staining based flow cytometry; format: functional, cell-based; conditions: dose microM 25-50, time 48.0 hrs
[31] = Antiproliferative activity against human U266B cells assessed as reduction in cell viability measured after 24 to 48 hrs by alamar blue dye based fluorescence assay; format: functional
[32] = tested on: U-937; assay: Cell cycle arrest in human U-937 cells assessed as increase in accumulation at pre-G1 phase at 10 uM measured after 48 hrs by propidium iodide staining based flow cytometry; format: functional

CN1CC2(CCN(Cc3ccc(C(=O)NO)cc3)CC2)c2cccc(-c3ccccc3)c21
inhibition [1]: 50% | inhibition [2]: 8.5%

CN1CC2(CCN(Cc3ccc(C(=O)NO)s3)CC2)c2cccc(-c3ccccc3)c21
inhibition [1]: 51.3% | inhibition [2]: 6.6%

O=C(NO)c1ccc(CN2CCC3(CC2)CN(C(=O)c2ccccc2)c2c(-c4ccccc4)cccc23)cc1
pIC50 [3]: 6.33 | pIC50 [4]: 5.33 | Ratio IC50 [5]: 10

CN1CC2(CCN(Cc3ccc(C(=O)NO)cc3)CC2)c2ccccc21
pIC50 [3]: 6.58 | Activity [6]: Toxic | Ratio IC50 [7]: 7 | CC50 at 24 h [8]: 24 µM | Activity [9]: Non-Toxic | Activity [10]: Toxic | pIC50 [4]: 4.65 | Activity [11]: Non-Toxic | pIC50 [12]: < 3.00 | Ratio IC50 [5]: 85 | pIC50 [13]: < 3.00 | inhibition [14]: Active | pIC50 [15]: 3.71 | inhibition [16]: Active | pIC50 [17]: 5.72 | pIC50 [18]: 4.75

CC(C)(C)OC(=O)N1CCC2(CC1)CN(Cc1ccc(C(=O)NO)cc1)c1ccccc12
Ratio IC50 [5]: 95

O=C(NO)c1ccc(CN2CCC3(CC2)CN(Cc2ccccc2)c2ccccc23)cc1
pIC50 [3]: 6.25 | CC50 at 24 h [8]: 40 µM | Activity [9]: Non-Toxic | Activity [19]: Active | Activity [20]: Active | Activity [21]: Toxic | pIC50 [4]: 5.19 | Activity [22]: Active | Activity [11]: Non-Toxic | pIC50 [12]: 4.72 | Activity [23]: Active | Ratio IC50 [5]: 12 | pIC50 [13]: 4.74 | pIC50 [15]: 4.89 | Activity [24]: Toxic | pIC50 [18]: 5.25

O=C(NO)c1ccc(COC(=O)N2CCC3(CC2)CN(Cc2ccccc2)c2ccccc23)cc1
pIC50 [3]: 7.31 | Activity [6]: Toxic | CC50 at 24 h [8]: 40 µM | Activity [25]: Active | Activity [10]: Toxic | pIC50 [4]: 5.17 | Activity [22]: Active | pIC50 [12]: < 3.00 | inhibition [26]: Dose-dependent effect | Ratio IC50 [5]: 140 | inhibition (INH) [27]: Not Active | inhibition [28]: Active | pIC50 [13]: 3.88 | inhibition [29]: Dose-dependent effect | Activity [30]: Active | pIC50 [31]: 4.69 | pIC50 [17]: 5.50 | pIC50 [18]: 4.42 | Activity [32]: Active

O=C(NO)c1ccc(CN2CCC3(CC2)CN(Cc2ccccc2)c2c(-c4ccccc4)cccc23)cc1
inhibition [1]: 29.7% | inhibition [2]: 2.9%

O=C(NO)c1ccc(CNC(=O)N2CCC3(CC2)CN(Cc2ccccc2)c2ccccc23)cc1
pIC50 [3]: 6.96 | pIC50 [4]: 5.44 | pIC50 [12]: 4.26 | Ratio IC50 [5]: 33 | pIC50 [13]: < 3.00 | pIC50 [31]: 4.23 | pIC50 [17]: 5.61

O=C(NO)c1ccc(CN2CCC3(CC2)CN(C(=O)c2ccccc2)c2ccccc23)cc1
pIC50 [3]: 6.81 | pIC50 [4]: 5.00 | pIC50 [12]: < 3.00 | Ratio IC50 [5]: 65 | pIC50 [13]: < 3.00

O=C(NO)c1ccc(CC(=O)N2CCC3(CC2)CN(Cc2ccccc2)c2ccccc23)cc1
pIC50 [3]: 6.64 | pIC50 [4]: 4.99 | Activity [22]: Active | pIC50 [12]: < 3.00 | Activity [23]: Active | Ratio IC50 [5]: 45 | inhibition (INH) [27]: Not Active | inhibition [28]: Active | pIC50 [13]: 4.27 | pIC50 [15]: 4.47 | pIC50 [18]: 4.86

— ChEMBL document CHEMBL4725478, “Spiroindoline-Capped Selective HDAC6 Inhibitors: Design, Synthesis, Structural Analysis, and Biological Evaluation” (ACS Med Chem Lett, 2020)
